Results on 10 compounds are retold here after patent US20190367516A1 (Bayer Pharma Aktiengesellschaft, priority 2015, published 2019).

The target of one test is T1, human M2 receptor (Homo sapiens, UniProt P08172).
T1 sequence (P08172 1-466): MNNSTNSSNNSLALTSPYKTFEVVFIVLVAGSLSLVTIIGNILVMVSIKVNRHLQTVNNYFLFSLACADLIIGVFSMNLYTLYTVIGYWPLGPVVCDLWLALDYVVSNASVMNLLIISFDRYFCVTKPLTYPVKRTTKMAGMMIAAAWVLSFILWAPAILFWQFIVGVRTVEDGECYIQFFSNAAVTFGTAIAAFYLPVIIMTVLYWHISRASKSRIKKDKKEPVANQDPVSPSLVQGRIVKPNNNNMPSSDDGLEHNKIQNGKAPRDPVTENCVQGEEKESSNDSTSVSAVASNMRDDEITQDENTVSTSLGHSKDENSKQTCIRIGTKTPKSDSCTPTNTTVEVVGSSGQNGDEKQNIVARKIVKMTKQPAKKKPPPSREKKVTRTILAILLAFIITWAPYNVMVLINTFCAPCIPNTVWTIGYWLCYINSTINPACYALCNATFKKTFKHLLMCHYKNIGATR
The following applies: Receptor activity EC50, M2-GIRK1/4 activation test, acetylcholine at EC20; allosteric potency; in some cases mean values from two or more determinations.
In the case of `O=C(NC(c1c(F)cccc1F)C(F)(F)F)c1cn(-c2ccc(F)cc2F)c2nc(N3CCC(O)CC3=O)ccc2c1=O` (racemic) [Example 252, rac-1-(2,4-Difluorophenyl)-N-[1-(2,6-difluorophenyl)-2,2,2-trifluoroethyl]-7-[4-hydroxy-2-oxopiperidin-1-yl]-4-oxo-1,4-dihydro-1,8-naphthyridine-3-carboxamide], the EC50 (in general, the concentration needed to bring the measured effect to its halfway point) was determined as 109 nM.

With `CC[C@@H](NC(=O)c1cn(-c2c(F)cccc2F)c2nc(N3CC(CO)OC3=O)ccc2c1=O)C(F)(F)F` (mixture of isomers) [Example 260, rac-1-(2,6-Difluorophenyl)-7-[5-(hydroxymethyl)-2-oxo-1,3-oxazolidin-3-yl]-4-oxo-N-[(2R)-1,1,1-trifluorobutan-2-yl]-1,4-dihydro-1,8-naphthyridine-3-carboxamide], the EC50 came out at 280 nM.

The compound `CC[C@@H](NC(=O)c1cn(-c2ccc(F)cc2F)c2nc(N3CCOC(C(F)F)C3)ccc2c1=O)C(F)(F)F` (mixture of isomers) [Example 263, 7-[2-(Difluoromethyl)morpholin-4-yl]-1-(2,4-difluorophenyl)-4-oxo-N-[(2R)-1,1,1-trifluorobutan-2-yl]-1,4-dihydro-1,8-naphthyridine-3-carboxamide] showed an EC50 of 440 nM.

On to `O=C(NC(C1CC1)C(F)(F)F)c1cn(-c2ccc(F)cc2F)c2nc(N3C[C@@H](O)CC3=O)ccc2c1=O` (mixture of isomers) [Example 283], for which the EC50 is 40 nM. This EC50 lies about 11-fold lower than the previous one.

`CC[C@@H](NC(=O)c1cn(-c2c(F)cccc2F)c2nc(N3CCC(O)C3=O)ccc2c1=O)C(F)(F)F` (mixture of isomers) [Example 292, 1-(2,6-Difluorophenyl)-7-[3-hydroxy-2-oxopyrrolidin-1-yl]-4-oxo-N-[(2R)-1,1,1-trifluorobutan-2-yl]-1,4-dihydro-1,8-naphthyridine-3-carboxamide] displayed an EC50 of 59 nM.

Take `C[C@H](NC(=O)c1cn(-c2c(F)cc(F)cc2F)c2nc(N3CC4CC4(O)C3)ccc2c1=O)C(F)(F)F` (mixture of isomers) [Example 316, 7-[1-Hydroxy-3-azabicyclo[3.1.0]hex-3-yl]-4-oxo-1-(2,4,6-trifluorophenyl)-N-[(2S)-1,1,1-trifluoropropan-2-yl]-1,4-dihydro-1,8-naphthyridine-3-carboxamide]: the concentration giving a half-maximal response (EC50) is 28 nM.

Compound `O=C(N[C@H](C1CC1)C(F)(F)F)c1cn(-c2c(F)cccc2F)c2nc(N3CC4CC4(O)C3)ccc2c1=O` (mixture of isomers) [Example 319, N-[(1R)-1-Cyclopropyl-2,2,2-trifluoroethyl]-1-(2,6-difluorophenyl)-7-[1-hydroxy-3-azabicyclo[3.1.0]hex-3-yl]-4-oxo-1,4-dihydro-1,8-naphthyridine-3-carboxamide] showed an EC50 of 25 nM.

`CC1(O)CCN(c2ccc3c(=O)c(C(=O)NC(C4CC4)C(F)(F)F)cn(-c4c(F)cccc4F)c3n2)C1` (racemic) [Example 326, N-[1-Cyclopropyl-2,2,2-trifluoroethyl]-1-(2,6-difluorophenyl)-7-[3-hydroxy-3-methylpyrrolidin-1-yl]-4-oxo-1,4-dihydro-1,8-naphthyridine-3-carboxamide] showed an EC50 of 47 nM. This EC50 lies about 1.9-fold higher than the previous one.

The same test, now with this note: Receptor activity EC50, allosteric potency at EC20 acetylcholine; M2-GIRK1/4 reporter cells; in some cases mean of two or more determinations.
Compound `CC[C@H](NC(=O)c1cn(-c2c(F)cc(F)cc2Cl)c2nc(N3CC4CC4(O)C3)ccc2c1=O)C(F)(F)F` (mixture of isomers) [Example 413, 1-(2-Chloro-4,6-difluorophenyl)-7-[1-hydroxy-3-azabicyclo[3.1.0]hex-3-yl]-4-oxo-N-[(2S)-1,1,1-trifluorobutan-2-yl]-1,4-dihydro-1,8-naphthyridine-3-carboxamide] yielded an EC50 of 10 nM. That is a double-digit nanomolar value.

With `O=C(N[C@H](C1CC1)C(F)(F)F)c1cn(-c2c(F)cc(F)cc2Cl)c2nc(N3CC4CC4(O)C3)ccc2c1=O` (mixture of isomers) [Example 415, 1-(2-Chloro-4,6-difluorophenyl)-N-[(1R)-1-cyclopropyl-2,2,2-trifluoroethyl]-7-[1-hydroxy-3-azabicyclo[3.1.0]hex-3-yl]-4-oxo-1,4-dihydro-1,8-naphthyridine-3-carboxamide], the EC50 turned out to be 6 nM.

The test is the same for the next values; noted with them: read-out: Efficiency, boosting of the acetylcholine effect at EC20 acetylcholine concentration; M2-GIRK1/4 reporter cells.
For the compound `CC[C@H](NC(=O)c1cn(-c2c(F)cc(F)cc2Cl)c2nc(N3CC4CC4(O)C3)ccc2c1=O)C(F)(F)F` (mixture of isomers) [Example 413, 1-(2-Chloro-4,6-difluorophenyl)-7-[1-hydroxy-3-azabicyclo[3.1.0]hex-3-yl]-4-oxo-N-[(2S)-1,1,1-trifluorobutan-2-yl]-1,4-dihydro-1,8-naphthyridine-3-carboxamide], the Emax amounted to 100%.

For `O=C(N[C@H](C1CC1)C(F)(F)F)c1cn(-c2c(F)cc(F)cc2Cl)c2nc(N3CC4CC4(O)C3)ccc2c1=O` (mixture of isomers) [Example 415, 1-(2-Chloro-4,6-difluorophenyl)-N-[(1R)-1-cyclopropyl-2,2,2-trifluoroethyl]-7-[1-hydroxy-3-azabicyclo[3.1.0]hex-3-yl]-4-oxo-1,4-dihydro-1,8-naphthyridine-3-carboxamide], the Emax was 96%.
